Where two headings read alike, the source gives them in different places.
Key:
[1] = test system: HBV rcDNA in HepDE19 cells; experiment: Inhibition of rcDNA in HepDE19 cells (bDNA assay), checkerboard, MacSynergy II; format: cell-based, HBV (human hepatoma cell line); design: key to ADDITIVE INHIBITION: % inhibition of rcDNA production; conditions: for ADDITIVE INHIBITION: GLS-4 0 μM; for inhibition at 0.000125 µM: ETV 0.125 nM alone
Protocol: In vitro combination studies were conducted using the method of Prichard and Shipman (Prichard M N, and Shipman C Jr., Antiviral Research, 1990, 14(4-5), 181-205; and Prichard M N, et. al., MacSynergy II). HepDE19 cell culture system is a HepG2 (human hepatocarcinoma) derived cell line that supports HBV DNA replication and cccDNA formation in a tetracycline (Tet)-regulated manner and produces HBV rcDNA and a detectable reporter molecule dependent on the production and maintenance of cccDNA (Guo et al 2007. J. Virol 81:12472-12484). HepDE19 (50,000 cells/well) were plated in 96 well collagen-coated tissue-culture treated microtiter plates in DMEM/F12 medium supplemented with 10% fetal bovine serum, 1% penicillin-streptomycin and 1 μg/ml tetracycline and incubated in a humidified incubator at 37° C. and 5% CO2 overnight. Next day, the cells were switched to fresh medium without tetracycline and incubated for 4 hrs at 37° C. and 5% CO2. […] The two inhibitors were tested both singly as well as in combinations in a checkerboard fashion such that each concentration of inhibitor A was combined with each concentration of inhibitor B to determine their combination effects on inhibition of rcDNA production. Following a 7 day-incubation of cells with compound combinations, the level of rcDNA present in the inhibitor-treated wells was measured using a Quantigene 2.0 bDNA assay kit (Affymetrix, Santa Clara, CA) with HBV specific custom probe set and manufacturers instructions. […] The RLU data from the single compound treated cells were analyzed using XL-Fit module in Microsoft Excel to determine EC50 values using a 4-parameter curve fitting algorithm. Concurrently, the effect of compounds on cell viability was assessed using replicate plates, plated at a density of 5,000 cells/well and incubated for 4 days, to determine the ATP content as a measure of cell viability using the cell-titer glo reagent (CTG; Promega Corporation, Madison, WI) as per manufacturer's instructions.
In vitro combination studies were conducted using the method of Prichard and Shipman (Prichard M N, Shipman C, Jr., Antiviral Res, 14, 181-205 (1990)). The HepDE19 cell line was developed as described in Guo et al. (Guo et al., J Virol, 81, 12472-12484 (2007)). It is a human hepatoma cell line stably transfected with the HBV genome, and which can express HBV pregenomic RNA and support HBV rcDNA (relaxed circular DNA) synthesis in a tetracycline-regulated manner. HepDE19 cells were plated in 96 well tissue-culture treated microtiter plates in DMEM/F12 medium supplemented with 10% fetal bovine serum+1% penicillin-streptomycin without tetracycline and incubated in a humidified incubator at 37° C. and 5% CO2 overnight. […] The two inhibitors were tested both singly as well as in combinations in a checkerboard fashion such that each concentration of inhibitor A was combined with each concentration of inhibitor B to determine their combination effects on inhibition of rcDNA production. Following a 48 hour-incubation, the level of rcDNA present in the inhibitor-treated wells was measured using a bDNA assay (Affymetrix) with HBV specific custom probe set and manufacturers instructions. […] Concurrently, the effect of inhibitor combinations on cell viability was assessed using replicate plates that were used to determine the ATP content as a measure of cell viability using the Cell-TiterGlo reagent (Promega) as per manufacturer's instructions.
In vitro combination studies were conducted using the method of Prichard and Shipman (1990) (Prichard M N, Shipman C, Jr. 1990. A three-dimensional model to analyze drug-drug interactions. Antiviral Res 14:181-205 AND Prichard M N. 1992. MacSynergy II, University of Michigan).

hepatitis B virus (HBV) = experiment: Serum HBV DNA in mouse model of HBV (pHBV1.3 hydrodynamic injection), quantitative PCR; format: in vivo, NOD.CB17-Prkdc^scid/J mice; conditions: mean ± SEM
Protocol: A mouse model of hepatitis B virus (HBV) was used to assess the anti-HBV effects of a small molecule inhibitor of HBV encapsidation (Compound 3) and HBV-targeting siRNAs, both as independent treatments and in combination with each other.
On Day −7, 10 micrograms of the plasmid pHBV1.3 (as per Guidotti, L., et al., Journal of Virology, 1995, 69(10): 6158-6169) was administered to NOD.CB17-Prkdc^scid/J mice via hydrodynamic injection (HDI; rapid 1.6 mL injection into the tail vein). […] As a readout of the anti-HBV effect of various treatments, serum HBV DNA concentration in mice was measured from total extracted DNA using a quantitative PCR assay (primer/probe sequences from Tanaka, Y., et al., Journal of Medical Virology, 2004, 72: 223-229).
Animals were treated with Compound 3 as follows: Starting on Day 0, a 50 mg/kg or 100 mg/kg dosage of Compound 3 was administered orally to animals on a twice-daily frequency for a total of fourteen doses between Days 0 and 7. Compound 3 was dissolved in a co-solvent formulation for administration. Negative control animals were administered either the co-solvent formulation alone, or saline. Animals were treated with lipid nanoparticle (LNP)-encapsulated HBV-targeting siRNAs as follows: On Day 0, an amount of test article equivalent to 0.1 mg/kg siRNA was administered intravenously.
The effect of these treatments was determined by collecting blood on Days 0 (pre-treatment), 4 & 7 and analyzing it for serum HBV DNA content.
Animals were treated with Compound 3 as follows: Starting on Day 0, a 100 mg/kg dosage of Compound 3 was administered orally to animals on a twice-daily frequency for a total of fourteen doses between Days 0 and 7. Compound 3 was dissolved in a co-solvent formulation for administration. Negative control animals were administered either the co-solvent formulation alone, or saline. Animals were treated with ETV as follows: Starting on Day 0, either a 100 ng/kg or a 300 ng/kg dosage of ETV was administered orally to animals on a once-daily frequency for a total of seven doses between Days 0 and 6. ETV was dissolved in DMSO to 2 mg/mL and then diluted in saline for administration.
The effect of these treatments was determined by collecting blood on Days 0 (pre-treatment), 4 & 7 and analyzing it for serum HBV DNA content. Samples with Ct values below the lower limit of quantitation (LLOQ) were set to one-half LLOQ for calculation of group means.

CC[C@@H](C)NS(=O)(=O)c1ccc(F)c(C(=O)Nc2ccc(F)c(F)c2)c1 [Compound 3]
ADDITIVE INHIBITION ([1]; Compound 3 0.040 μM): 11.14
ADDITIVE INHIBITION ([1]; Compound 3 0.110 μM): 19.99
ADDITIVE INHIBITION ([1]; Compound 3 0.330 μM): 56.68
ADDITIVE INHIBITION ([1]; Compound 3 1.000 μM): 86.87
Serum HBV DNA as percentage of individual pre-treatment baseline (hepatitis B virus (HBV); Table 2, Day 0 (pre-treatment), Compound 3 50 mg/kg oral twice daily, alone or with HBV siRNA 0.1 mg/kg IV Day 0): 100 ± 0%
Serum HBV DNA as percentage of individual pre-treatment baseline (hepatitis B virus (HBV); Table 2, Day 0 (pre-treatment), Compound 3 100 mg/kg oral twice daily, alone or with HBV siRNA 0.1 mg/kg IV Day 0): 100 ± 0%
Serum HBV DNA as percentage of individual pre-treatment baseline (hepatitis B virus (HBV); Table 3, Day 0 (pre-treatment), Compound 3 100 mg/kg oral twice daily alone): 100 ± 0%

C=C1[C@H](CO)[C@@H](O)C[C@@H]1n1cnc2c(=O)[nH]c(N)nc21 [ETV, Entecavir]
inhibition at 15.63 pM ([1]; Hepatitis B virus, HepDE19, ETV 0.015625 nM alone, read-out: Additive inhibition (rcDNA)): -43.7%
inhibition at 16 pM ([1]; Hepatitis B virus, HepDE19, ETV 0.016 nM alone): -43.7%
inhibition at 31 pM ([1]; Hepatitis B virus, HepDE19, ETV 0.031 nM alone): -50.1%
inhibition at 31.25 pM ([1]; Hepatitis B virus, HepDE19, ETV 0.03125 nM alone, read-out: Additive inhibition (rcDNA)): -50.1%
inhibition at 62.5 pM ([1]; Hepatitis B virus, HepDE19, ETV 0.0625 nM alone, read-out: Additive inhibition (rcDNA)): -30.3%
inhibition at 63 pM ([1]; Hepatitis B virus, HepDE19, ETV 0.063 nM alone): -30.3%
inhibition at 0.000125 µM ([1]; Hepatitis B virus, HepDE19, read-out: Additive inhibition (rcDNA)): -23.5%
inhibition at 0.000125 µM ([1]; Hepatitis B virus, HepDE19, read-out: Average % inhibition (rcDNA)): -23.5%
inhibition at 0.00025 µM ([1]; Hepatitis B virus, HepDE19, ETV 0.25 nM alone, read-out: Additive inhibition (rcDNA)): -21.2%
inhibition at 0.00025 µM ([1]; Hepatitis B virus, HepDE19, ETV 0.250 nM alone, read-out: Average % inhibition (rcDNA)): -21.2%
inhibition at 0.0005 µM ([1]; Hepatitis B virus, HepDE19, ETV 0.5 nM alone, read-out: Additive inhibition (rcDNA)): -10.2%
inhibition at 0.0005 µM ([1]; Hepatitis B virus, HepDE19, ETV 0.500 nM alone, read-out: Average % inhibition (rcDNA)): -10.2%
inhibition at 0.001 µM ([1]; Hepatitis B virus, HepDE19, ETV 1 nM alone, read-out: Additive inhibition (rcDNA)): 41.7%
inhibition at 0.001 µM ([1]; Hepatitis B virus, HepDE19, ETV 1.000 nM alone, read-out: Average % inhibition (rcDNA)): 41.7%
inhibition at 0.002 µM ([1]; Hepatitis B virus, HepDE19, ETV 2 nM alone, read-out: Additive inhibition (rcDNA)): 58.4%
inhibition at 0.002 µM ([1]; Hepatitis B virus, HepDE19, ETV 2.000 nM alone, read-out: Average % inhibition (rcDNA)): 58.4%
inhibition at 0.004 µM ([1]; Hepatitis B virus, HepDE19, ETV 4 nM alone, read-out: Additive inhibition (rcDNA)): 70%
inhibition at 0.004 µM ([1]; Hepatitis B virus, HepDE19, ETV 4.000 nM alone, read-out: Average % inhibition (rcDNA)): 70%
Serum HBV DNA as percentage of individual pre-treatment baseline (hepatitis B virus (HBV); Table 3, Day 0 (pre-treatment), ETV 100 ng/kg oral once daily, alone or with Compound 3 100 mg/kg oral twice daily): 100 ± 0%
Serum HBV DNA as percentage of individual pre-treatment baseline (hepatitis B virus (HBV); Table 3, Day 0 (pre-treatment), ETV 300 ng/kg oral once daily, alone or with Compound 3 100 mg/kg oral twice daily): 100 ± 0%
Serum HBV DNA as percentage of individual pre-treatment baseline (hepatitis B virus (HBV); Table 3, Day 4, ETV 100 ng/kg oral once daily, alone or with Compound 3 100 mg/kg oral twice daily): 21 ± 5%
Serum HBV DNA as percentage of individual pre-treatment baseline (hepatitis B virus (HBV); Table 3, Day 4, ETV 300 ng/kg oral once daily, alone or with Compound 3 100 mg/kg oral twice daily): 1.6 ± 0.3%
Serum HBV DNA as percentage of individual pre-treatment baseline (hepatitis B virus (HBV); Table 3, Day 7, ETV 100 ng/kg oral once daily, alone or with Compound 3 100 mg/kg oral twice daily): 3.5 ± 0.7%
Serum HBV DNA as percentage of individual pre-treatment baseline (hepatitis B virus (HBV); Table 3, Day 7, ETV 300 ng/kg oral once daily, alone or with Compound 3 100 mg/kg oral twice daily): 0.88 ± 0.31%
